The text below walks through data of BindingDB's records for doi:10.1016/j.bmcl.2006.07.074 (Boehringer Ingelheim Pharmaceuticals, 2006).

This assay concerns the target DNA-directed RNA polymerase II (Bos taurus). Briefly: Inhibition of calf thymus DNA dependent RNA polymerase 2.

In general, IC50 refers to the concentration that inhibits the measured activity by half. A high value points to lower potency. The molecule `O=C(O)c1ccc2c(C3CCCCC3)c(-c3ccoc3)[nH]c2c1` [3-cyclohexyl-2-(furan-3-yl)-1H-indole-6-carboxylic acid] had a half-inhibitory concentration (IC50) above 125 µM.
